From patent US20240081326A1, “Use of a Biobased Composition Comprising Ferulated Chitosan as a Pesticide Safener” (FYTEKO SA, priority 2020, published 2024)

System: Lemna minor
Experiment: Lemna minor in vitro relative growth rate and survival with herbicide Profoxydim
Type: in vivo
Conditions: one week; for relative growth rate (RGR) of Lemna minor plants, substance alone: 10 mg/L in Hoagland medium
Experimental: The experiment was carried out in Lemna minor growing under in vitro conditions. A stock culture of Lemna minor was maintained on modified Hoagland medium in a controlled environment. […] An experiment was conducted, using fronds free from any visible chlorosis which were taken from the stock cultures and exposed to diverse treatments. For each treatment, six repetitions with three fronds per repetition as the initial frond number were used. […] The multiplate was covered with a transparent cover to prevent evaporation. The relative growth was calculated after one week of incubation in the described conditions, and the survival rate was evaluated.

## CCCC(=NOCC(C)Oc1ccc(Cl)cc1)C1=C(O)CC(C2CCCSC2)CC1=O (stereo not drawn) [Profoxydim]
  relative growth rate (RGR) of Lemna minor plants, substance alone: drastically reduced the RGR

## COc1cc(/C=C/C(=O)O)ccc1O [ferulic acid]
  relative growth rate (RGR) of Lemna minor plants, substance alone: hindering Lemna minor growth
10 mg/L with 10 mg/L Profoxydim
  protective effect on relative growth rate in combination with the herbicide Profoxydim: Neither chitosan nor ferulic acid in combination with the herbicide showed this protective effect
